From article PMC10820826, “Interrogation and validation of the interactome of neuronal Munc18-interacting Mint proteins with AlphaFold2” (The Journal of Biological Chemistry, 2023)
Ends that are not written are not given here.

Assays:
Munc18-1 = target: T1, Munc18-1 (Rattus norvegicus, UniProt P61765); test: ITC of Mint peptides and Sx1a binding to Munc18-1
T1 construct: His (C); made in house; host or cells: Escherichia coli Rosetta BL21 (DE3)
Protocol: For ITC, all peptides were weighed and initially dissolved in the working buffer to make a stock concentration of 2 mM. […] The binding parameters, equilibrium constant Ka (1/Kd), stoichiometry (n), and the enthalpy (ΔH) were determined by processing the ITC data using ORIGIN 7.0 software. The equation, ΔG = ΔH – TΔS, was used to calculate the Gibbs free energy (ΔG), and all the experiments were performed in triplicate or duplicate to calculate the SEM for thermodynamic parameters.

[1] = target: Munc18-1^Δ317–333 + Mint1; test: ITC of Sx1a binding to Munc18-1 hinge-loop deletion mutant in the presence of Mint1 (261–282) peptide; parameters: species or system rat; conditions: Table 2; syringe Sx1a + Mint1, cell Munc18-1^Δ317–333 + Mint1; ITC 25 °C
Source text: As Mint1 binds to Munc18-1 domain 3b, we hypothesized that the perturbed Mint1 interaction on deletion of the distal domain 3a hinge-loop might be due to altered structural dynamics in the combined domain3a/3b module. […] This is in line with the ability to cocrystallize the three proteins when excess Mint1 peptide is present ([47]). […] This has potential implications for a role of Mint proteins in Munc18-1-mediated SNARE assembly, which is a tightly regulated and highly dynamic process.
For ITC, all peptides were weighed and initially dissolved in the working buffer to make a stock concentration of 2 mM. […] GST-Mint1 and all the other proteins used in the experiments were buffer exchanged into 50 mM Tris (pH 8.0) and 200 mM NaCl by gel filtration prior to ITC. […] Mint1 PTB domain binding to the APP and TJAP1 peptides was performed in 50 mM Hepes, 200 mM NaCl, 0.5 mM TCEP, and 5% glycerol at 25 °C with 1 mM peptides titrated into 50 μM Mint1 PTB domain. The binding parameters, equilibrium constant Ka (1/Kd), stoichiometry (n), and the enthalpy (ΔH) were determined by processing the ITC data using ORIGIN 7.0 software. The equation, ΔG = ΔH – TΔS, was used to calculate the Gibbs free energy (ΔG), and all the experiments were performed in triplicate or duplicate to calculate the SEM for thermodynamic parameters.

T1 sequence (P61765 whole entry): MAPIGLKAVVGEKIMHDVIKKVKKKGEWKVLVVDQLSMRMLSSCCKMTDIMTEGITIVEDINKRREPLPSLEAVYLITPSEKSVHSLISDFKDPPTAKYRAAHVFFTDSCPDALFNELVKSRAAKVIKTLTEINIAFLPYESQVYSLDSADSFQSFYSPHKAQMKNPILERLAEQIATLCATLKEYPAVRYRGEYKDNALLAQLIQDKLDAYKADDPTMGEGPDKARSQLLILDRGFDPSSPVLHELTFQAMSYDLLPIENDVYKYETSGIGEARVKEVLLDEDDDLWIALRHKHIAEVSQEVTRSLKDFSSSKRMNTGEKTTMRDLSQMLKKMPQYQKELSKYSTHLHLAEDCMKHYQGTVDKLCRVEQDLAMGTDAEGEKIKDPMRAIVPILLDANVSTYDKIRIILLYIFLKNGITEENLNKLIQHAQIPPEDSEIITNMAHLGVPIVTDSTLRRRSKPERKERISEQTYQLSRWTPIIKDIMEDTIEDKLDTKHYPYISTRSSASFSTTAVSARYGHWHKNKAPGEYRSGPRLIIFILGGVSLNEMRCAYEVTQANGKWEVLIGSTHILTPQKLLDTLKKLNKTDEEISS

Row | Kd (Munc18-1) [µM] | Substance | Kd [1] [µM]
1 | 200 | LEDQEEDIDQIVAEIKMELEMEEI [Mint2_2] | 
2 | 216 | MDSYEQEEDIDQIVAAVKQSMS [Mint1_14] | 
3 |  | Sx1a: recombinant rat Syntaxin1a (Sx1_1–261-His) expressed in E. coli | 0.09
